From US10493060B2, “Spirocyclic compounds” (ZENO ROYALTIES & MILESTONES, LLC, priority 2015, dated 2019)

target: Activated ERK2 (Homo sapiens (Human), UniProt P28482); assay: Active ERK2 kinase assay (Mobility Shift Assay); format: biochemical
Method: (§1) Activated ERK1 and ERK2 activity was determined in a Mobility Shift Assay (MSA) format as follows: Compound and kinase solution were prepared with assay buffer (20 mM HEPES, 0.01% Triton X-100, 2 mM DTT, pH7.5) and mixed and incubated in for 30 mins at rt. ERK1 & ERK2 were then activated by the addition of Fl-Substrate, ATP and metal solution and incubated for 1 h at rt. After 1 h, the reaction was terminated by the addition of […] of Termination Buffer (QuickScout Screening Assist MSA; Carna Biosciences) to the well. The reaction mixture was applied to LabChip™ system (PerkinElmer), and the product and substrate peptide peaks were separated, analyzed and quantitated. The kinase reaction is evaluated by the product ratio calculated from peak heights of product (P) and substrate (S) peptides (P/(P+S)).

Activated ERK2, sequence (P28482 whole entry): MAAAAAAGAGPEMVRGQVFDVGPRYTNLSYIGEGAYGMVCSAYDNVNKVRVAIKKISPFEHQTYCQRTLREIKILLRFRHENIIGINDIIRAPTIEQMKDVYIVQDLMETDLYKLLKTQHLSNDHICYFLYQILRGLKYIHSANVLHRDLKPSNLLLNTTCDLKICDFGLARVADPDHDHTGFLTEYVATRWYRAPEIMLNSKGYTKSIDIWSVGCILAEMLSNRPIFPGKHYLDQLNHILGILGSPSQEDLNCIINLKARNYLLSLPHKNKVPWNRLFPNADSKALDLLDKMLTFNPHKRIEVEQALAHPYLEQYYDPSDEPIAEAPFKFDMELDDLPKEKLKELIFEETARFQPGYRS

IC50 | Compound
≤ 50 nM | CC(C)Oc1ccc(-c2n[nH]c3ccc(N4CC[C@]5(CCN(CC(=O)N6CC=C(c7ccc(-c8ncn(C)n8)cc7F)CC6)C5)C4=O)cc23)cn1 [Example 55, (S)-7-(2-(4-(2-Fluoro-4-(1-methyl-1H-1,2,4-triazol-3-yl)phenyl)-3,6-dihydropyridin-1(2H)-yl)-2-oxoethyl)-2-(3-(6-isopropoxypyridin-3-yl)-1H-indazol-5-yl)-2,7-diazaspiro[4.4]nonan-1-one]
≤ 50 nM | Cc1ccc(-c2n[nH]c3ccc(N4CC[C@]5(CCN(CC(=O)N6CC=C(c7ccc(-c8ncn(C)n8)cc7)CC6)C5)C4=O)cc23)cn1 [Example 57, (S)-7-(2-(4-(4-(1-Methyl-1H-1,2,4-triazol-3-yl)phenyl)-3,6-dihydropyridin-1(2H)-yl)-2-oxoethyl)-2-(3-(6-methylpyridin-3-yl)-1H-indazol-5-yl)-2,7-diazaspiro[4.4]nonan-1-one]
≤ 50 nM | CC(C)Oc1ccc(-c2n[nH]c3ccc(N4CC[C@]5(CCN(CC(=O)N6CC=C(c7ccc(-c8ncn(C)n8)c(F)c7)CC6)C5)C4=O)cc23)cn1 [Example 56, (S)-7-(2-(4-(3-Fluoro-4-(1-methyl-1H-1,2,4-triazol-3-yl)phenyl)-3,6-dihydropyridin-1(2H)-yl)-2-oxoethyl)-2-(3-(6-isopropoxypyridin-3-yl)-1H-indazol-5-yl)-2,7-diazaspiro[4.4]nonan-1-one]
≤ 50 nM | Cc1noc(-c2ccc(C3=CCN(C(=O)CN4CC[C@]5(CCN(c6ccc7[nH]nc(-c8ccc(OC(C)C)nc8)c7c6)C5=O)C4)CC3)cc2)n1 [Example 54, (S)-2-(3-(6-Isopropoxypyridin-3-yl)-1H-indazol-5-yl)-7-(2-(4-(4-(3-methyl-1,2,4-oxadiazol-5-yl)phenyl)-3,6-dihydropyridin-1(2H)-yl)-2-oxoethyl)-2,7-diazaspiro[4.4]nonan-1-one]
≤ 50 nM | Cn1cnc(-c2ccc(C3=CCN(C(=O)CN4CC[C@]5(CCN(c6ccc7[nH]nc(-c8ccc(S(C)(=O)=O)cc8)c7c6)C5=O)C4)CC3)cc2)n1 [Example 58, (S)-7-(2-(4-(4-(1-Methyl-1H-1,2,4-triazol-3-yl)phenyl)-3,6-dihydropyridin-1(2H)-yl)-2-oxoethyl)-2-(3-(4-(methylsulfonyl)phenyl)-1H-indazol-5-yl)-2,7-diazaspiro[4.4]nonan-1-one]
50 to 250 nM | CCNc1n[nH]c2ccc(N3CC[C@]4(CCN(CC(=O)N5CC=C(c6ccc(-c7ncn(C)n7)cc6)CC5)C4)C3=O)cc12 [Example 53, (S)-2-(3-(Ethylamino)-1H-indazol-5-yl)-7-(2-(4-(4-(1-methyl-1H-1,2,4-triazol-3-yl)phenyl)-3,6-dihydropyridin-1(2H)-yl)-2-oxoethyl)-2,7-diazaspiro[4.4]nonan-1-one]

Further lines, the compound ahead of its results:

Compound | IC50
CC(C)Oc1ccc(-c2n[nH]c3ccc(N4CC[C@@]5(CCN(CC(=O)N6CC=C(c7ccc(-c8ncn(C)n8)cc7)CC6)C5)C4=O)cc23)cn1 [Example 11, (R)-2-(3-(6-Isopropoxypyridin-3-yl)-1H-indazol-5-yl)-7-(2-(4-(4-(1-methyl-1H-1,2,4-triazol-3-yl)phenyl)-3,6-dihydropyridin-1 (2H)-yl)-2-oxoethyl)-2,7-diazaspiro[4.4]nonan-1-one] | ≥ 250 nM
Cn1cnc(-c2ccc(C3=CCN(C(=O)CN4CC[C@]5(CCN(c6ccc7[nH]nc(C(F)F)c7c6)C5=O)C4)CC3)cc2)n1 [Example 52, (S)-2-(3-(Difluoromethyl)-1H-indazol-5-yl)-7-(2-(4-(4-(1-methyl-1H-1,2,4-triazol-3-yl)phenyl)-3,6-dihydropyridin-1(2H)-yl)-2-oxoethyl)-2,7-diazaspiro[4.4]nonan-1-one] | ≤ 50 nM
Cn1cnc(-c2ccc(C3=CCN(C(=O)CN4CC[C@]5(CCN(c6ccc7[nH]nc(C#N)c7c6)C5=O)C4)CC3)cc2)n1 [Example 51, (S)-5-(7-(2-(4-(4-(1-Methyl-1H-1,2,4-triazol-3-yl)phenyl)-3,6-dihydropyridin-1(2H)-yl)-2-oxoethyl)-1-oxo-2,7-diazaspiro[4.4]nonan-2-yl)-1H-indazole-3-carbonitrile] | ≤ 50 nM
CC(C)Oc1ccc(-c2n[nH]c3ccc(N4CC[C@]5(CCN(CC(=O)N6CC=C(c7ccc(-c8ncn(C9CC9)n8)cc7)CC6)C5)C4=O)cc23)cn1 [Example 50, (S)-7-(2-(4-(4-(1-Cyclopropyl-1H-1,2,4-triazol-3-yl)phenyl)-3,6-dihydropyridin-1(2H)-yl)-2-oxoethyl)-2-(3-(6-isopropoxypyridin-3-yl)-1H-indazol-5-yl)-2,7-diazaspiro[4.4]nonan-1-one] | ≤ 50 nM
CCn1cnc(-c2ccc(C3=CCN(C(=O)CN4CC[C@]5(CCN(c6ccc7[nH]nc(-c8ccc(OC(C)C)nc8)c7c6)C5=O)C4)CC3)cc2)n1 [Example 46, (S)-7-(2-(4-(4-(1-Ethyl-1H-1,2,4-triazol-3-yl)phenyl)-3,6-dihydropyridin-1(2H)-yl)-2-oxoethyl)-2-(3-(6-isopropoxypyridin-3-yl)-1H-indazol-5-yl)-2,7-diazaspiro[4.4]nonan-1-one] | ≤ 50 nM
CC(C)Oc1ccc(-c2n[nH]c3ccc(N4CC[C@]5(CCN(CC(=O)N6CC=C(c7ccc(-c8ncn(CCO)n8)cc7)CC6)C5)C4=O)cc23)cn1 [Example 47, (S)-7-(2-(4-(4-(1-(2-Hydroxyethyl)-1H-1,2,4-triazol-3-yl)phenyl)-3,6-dihydropyridin-1(2H)-yl)-2-oxoethyl)-2-(3-(6-isopropoxypyridin-3-yl)-1H-indazol-5-yl)-2,7-diazaspiro[4.4]nonan-1-one] | ≤ 50 nM
Cn1cnc(-c2ccc(C3=CCN(C(=O)CN4CC[C@]5(CCN(c6ccc7[nH]nc(C8CC8)c7c6)C5=O)C4)CC3)cc2)n1 [Example 45, (S)-2-(3-Cyclopropyl-1H-indazol-5-yl)-7-(2-(4-(4-(1-methyl-1H-1,2,4-triazol-3-yl)phenyl)-3,6-dihydropyridin-1(2H)-yl)-2-oxoethyl)-2,7-diazaspiro[4.4]nonan-1-one] | ≤ 50 nM
Cn1cc(-c2n[nH]c3ccc(N4CC[C@]5(CCN(CC(=O)N6CC=C(c7ccc(-c8ncn(C)n8)cc7)CC6)C5)C4=O)cc23)cn1 [Example 48, (S)-7-(2-(4-(4-(1-Methyl-1H-1,2,4-triazol-3-yl)phenyl)-3,6-dihydropyridin-1 (2H)-yl)-2-oxoethyl)-2-(3-(1-methyl-1H-pyrazol-4-yl)-1H-indazol-5-yl)-2,7-diazaspiro[4.4]nonan-1-one] | ≤ 50 nM
COCCn1cnc(-c2ccc(C3=CCN(C(=O)CN4CC[C@]5(CCN(c6ccc7[nH]nc(-c8ccc(OC(C)C)nc8)c7c6)C5=O)C4)CC3)cc2)n1 [Example 49, (S)-2-(3-(6-Isopropoxypyridin-3-yl)-1H-indazol-5-yl)-7-(2-(4-(4-(1-(2-methoxyethyl)-1H-1,2,4-triazol-3-yl)phenyl)-3,6-dihydropyridin-1(2H)-yl)-2-oxoethyl)-2,7-diazaspiro[4.4]nonan-1-one] | ≤ 50 nM
Cn1cnc(-c2ccc(N3CCN(C(=O)CN4CC[C@]5(CCN(c6ccc7[nH]nc(C8CC8)c7c6)C5=O)C4)CC3)cc2)n1 [Example 44, (S)-2-(3-Cyclopropyl-1H-indazol-5-yl)-7-(2-(4-(4-(1-methyl-1H-1,2,4-triazol-3-yl)phenyl)piperazin-1-yl)-2-oxoethyl)-2,7-diazaspiro[4.4]nonan-1-one] | 50 to 250 nM

target: Activated ERK1 (Homo sapiens (Human), UniProt P27361); assay: Active ERK1 kinase assay (Mobility Shift Assay); format: biochemical
Method: as §1

Activated ERK1, sequence (P27361 whole entry): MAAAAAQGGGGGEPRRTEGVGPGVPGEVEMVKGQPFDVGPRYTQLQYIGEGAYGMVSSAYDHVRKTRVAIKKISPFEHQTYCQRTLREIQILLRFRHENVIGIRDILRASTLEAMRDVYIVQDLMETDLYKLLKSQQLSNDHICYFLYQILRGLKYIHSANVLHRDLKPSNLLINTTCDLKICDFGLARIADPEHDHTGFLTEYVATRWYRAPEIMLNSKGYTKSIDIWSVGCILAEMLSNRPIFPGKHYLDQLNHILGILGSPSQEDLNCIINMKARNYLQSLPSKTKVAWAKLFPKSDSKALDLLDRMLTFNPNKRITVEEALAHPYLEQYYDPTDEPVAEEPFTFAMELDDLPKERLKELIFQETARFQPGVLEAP

IC50 | Compound
≥ 250 nM | CC(C)Oc1ccc(-c2n[nH]c3ccc(N4CC[C@@]5(CCN(CC(=O)N6CC=C(c7ccc(-c8ncn(C)n8)cc7)CC6)C5)C4=O)cc23)cn1 [Example 11, (R)-2-(3-(6-Isopropoxypyridin-3-yl)-1H-indazol-5-yl)-7-(2-(4-(4-(1-methyl-1H-1,2,4-triazol-3-yl)phenyl)-3,6-dihydropyridin-1 (2H)-yl)-2-oxoethyl)-2,7-diazaspiro[4.4]nonan-1-one]
